Test results: US9695132B2, “Heteroaryl compounds and uses thereof” (Celgene CAR LLC, priority 2013, dated 2017)
Where two headings read alike, the source gives them in different places.

Experiments:
FGFR4-WT = FGFR4-WT (Homo sapiens (Human), UniProt P22455); experiment: Omnia assay for potency assessment against FGFR4 enzyme; type: biochemical
Experimental: A 10× stock solution of FGFR4-WT (PR4380C), (from Invitrogen, Carlsbad, Calif.) corresponding to method a in Table 7, was prepared as described below. Alternatively, a 10× stock solution of FGFR4-WT (F01-11G), (SignalChem, Richmond, BC) corresponding to method b in Table 7, was prepared as described below. A solution of 1.4×ATP (AS001A) and 5× Tyr-Sox conjugated peptide substrate (KNZ3101) were prepared in 1× kinase reaction buffer consisting of 20 mM Tris, pH 7.5, 5 mM MgCl2, 1 mM EGTA, 5 mM β-glycerophosphate, 5% glycerol (10× stock, KB002A) and 0.2 mM DTT (DS001A). […] The serially diluted compounds were prepared on a Tecan EVO100. A second addition of 10 μl of Tyr-Sox FGFR4 substrate was added to each well and the kinase reactions were started with the addition of 35 μL of 1.4×ATP. The reactions were monitored every 71 seconds for 240 minutes at λex360/λem485 in a Synergy plate reader from BioTek (Winooski, Vt.).

pFGFR4 in Huh7 cells = pFGFR4 in Huh7 cells (Homo sapiens (Human), UniProt P22455); experiment: FGFR4 signaling, Meso Scale assay (MSD), Method B, Huh7
Chain of pFGFR4 in Huh7 cells (P22455 22-802): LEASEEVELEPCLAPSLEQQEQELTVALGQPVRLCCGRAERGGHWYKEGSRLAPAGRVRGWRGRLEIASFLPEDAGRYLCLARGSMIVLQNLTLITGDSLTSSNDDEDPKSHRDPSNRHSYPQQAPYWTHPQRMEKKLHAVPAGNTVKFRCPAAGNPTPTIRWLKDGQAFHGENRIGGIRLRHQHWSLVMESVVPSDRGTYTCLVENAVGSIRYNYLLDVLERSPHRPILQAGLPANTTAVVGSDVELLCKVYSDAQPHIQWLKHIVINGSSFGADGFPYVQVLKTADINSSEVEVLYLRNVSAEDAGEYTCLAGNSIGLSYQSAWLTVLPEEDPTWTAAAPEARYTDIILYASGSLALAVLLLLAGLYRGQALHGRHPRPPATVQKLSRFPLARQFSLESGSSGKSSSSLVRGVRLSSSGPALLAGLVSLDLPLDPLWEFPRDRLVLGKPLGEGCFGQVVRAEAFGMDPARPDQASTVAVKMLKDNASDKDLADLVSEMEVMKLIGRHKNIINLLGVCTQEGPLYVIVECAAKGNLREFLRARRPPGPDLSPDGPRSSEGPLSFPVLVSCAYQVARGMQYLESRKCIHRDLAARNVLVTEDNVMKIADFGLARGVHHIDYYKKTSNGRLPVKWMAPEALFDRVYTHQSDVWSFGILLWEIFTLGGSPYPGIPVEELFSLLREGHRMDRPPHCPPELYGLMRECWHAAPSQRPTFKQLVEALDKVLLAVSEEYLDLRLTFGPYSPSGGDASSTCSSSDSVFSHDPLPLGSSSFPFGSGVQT
Experimental: Huh7 cells were grown in DMEM (Invitrogen, Carlsbad, Calif.) supplemented with 10% FBS (Invitrogen) and 1% Penicillin-Streptomycin (P/S, Lonza, Walkersville, Md.).
For the MSD and ELISA assays, total FGFR4 antibodies were obtained from R&D Systems (Minneapolis, Minn.) and used at 1:500. […] Phospho-FGFR antibodies were obtained from Cell Signaling (Danvers, Mass.) or R&D Systems and used at 1:1000. The phopho-FGFR antibody from Cell Signaling was used for immunoblotting, whereas the phopho-FGFR antibody from R&D was used for MSD and ELISA assays. Secondary antibodies were used at 1:10,000. The goat anti-mouse IgG IRDye 800CW antibody was obtained from LiCor Biosciences (Lincoln, Nebr.) and the goat anti-rabbit IgG Alexa Fluor 680 was obtained from Invitrogen. The anti-rabbit Sulfo-tag and anti-streptavidin Sulfo-tag antibodies was obtained from Meso Scale Discovery (Gaithersburg, Md.), and were used at 1:1000 and 1:5000, respectively.
After treatment, the cells were washed with cold PBS (Invitrogen), and were immediately lysed by freeze/thawing 3× in 32 μL of cold Cell Extraction Buffer (Invitrogen), which was supplemented with Complete Protease inhibitors (Roche) and PhosphoSTOP (Roche) phosphatase inhibitors.
MSD plates (Meso Scale Discovery) were coated with total FGFR-4 antibodies overnight at 4° C. A lysate (25 μL) was added to the MSD plate overnight at 4° C. The MSD signals were obtained by incubating with a phospho-FGFR antibody (R&D Systems) and an anti-rabbit sulfo-tag antibody (Meso Scale), for 2 hr at room temperature. […] The data was fitted using a sigmoidal curve analysis program (Graph Pad Prism version 5) with variable Hill slope to determine the EC50 values.

[1] = method a: [FGFR4-WT]=10 nM (Invitrogen), [ATP]=300 uM, [Y10-Sox]=10 uM
[2] = method b: [FGFR4-WT]=2.5 nM (SignalChem), [ATP]=250 uM, [Y10-Sox]=10 uM

Chain of FGFR4-WT (P22455 22-802): as above

| Structure (SMILES) | IC50 (FGFR4-WT; [1]) [nM] | EC50 (pFGFR4 in Huh7 cells) [nM] | IC50 (FGFR4-WT; [2]) [nM] | IC50 (FGFR4-WT) [nM] |
| --- | --- | --- | --- | --- |
| C=CC(=O)NC1COCC1Nc1ncc2c(n1)N(C)C(=O)N(c1c(F)c(OC)cc(OC)c1F)C2 (centres unmarked) [Compound I-198] | < 100 | < 100 |  |  |
| C=CC(=O)Nc1ccccc1Nc1ncc2c(n1)N(Cc1cccc(C(N)=O)c1)C(=O)N(c1cc(OC)cc(OC)c1)C2 [Compound I-97] | < 100 | 101 to 500 |  |  |
| C=CC(=O)Nc1ccccc1Nc1ncc2c(n1)N(CCOC)C(=O)N(c1cc(OC)cc(OC)c1)C2 [Compound I-59] | < 100 | 101 to 500 |  |  |
| C=CC(=O)Nc1ccccc1Nc1ncc2c(n1)N(CCF)C(=O)N(c1cc(OC)cc(OC)c1)C2 [Compound I-102] | < 100 | < 100 |  |  |
| C=CC(=O)Nc1ccccc1Nc1ncc2c(n1)N(CC1CC1)C(=O)N(c1cc(OC)cc(OC)c1Cl)C2 [Compound I-100] | < 100 | < 100 |  |  |
| C=CC(=O)NC1COCC1Nc1ncc2c(n1)N(C)C(=O)N(c1cc(C(=O)Nc3cccc(C(C)(C)C#N)c3)ccc1Cl)C2 (centres unmarked) [Compound I-246] | 101 to 500 | 101 to 500 |  |  |
| C=CC(=O)Nc1ccccc1Nc1ncc2cc(-c3c(Cl)c(OC)cc(OC)c3Cl)c(=O)n(C)c2n1 [Compound I-244] | < 100 | < 100 |  |  |
| C=CC(=O)NC1COCC1Nc1ncc2c(n1)N(C)C(=O)N(c1cc(C(=O)Nc3cccc(C(C)(C)C)c3)ccc1Cl)C2 (centres unmarked) [Compound I-247] | 101 to 500 | < 100 |  |  |
| C=CC(=O)NC1COCC1Nc1ncc2c(n1)N(C)C(=O)N(c1cc(OC)c(OC)c(OC)c1)C2 (centres unmarked) [Compound I-207] | > 1000 | > 1000 |  |  |
| C=CC(=O)N[C@H]1CCCC[C@H]1Nc1ncc2c(n1)N(C)C(=O)N(c1c(Cl)c(OC)c(OC)c(OC)c1Cl)C2 [Compound I-221] |  | > 1000 |  |  |
| C=CC(=O)NC1COCC1Nc1ncc2c(n1)N(Cc1cnn(C)c1)C(=O)N(c1c(Cl)c(OC)cc(OC)c1Cl)C2 (centres unmarked) [Compound I-213] | < 100 | < 100 |  |  |
| C=CC(=O)N[C@H]1CCCC[C@H]1Nc1ncc2c(n1)N(C)C(=O)N(c1c(F)c(OC)cc(OC)c1F)C2 [Compound I-143] | < 100 | 101 to 500 |  |  |
| COc1cc(OC)c(Cl)c(N2Cc3cnc(Nc4ccccc4)nc3N(C)C2=O)c1Cl [Compound I-238] |  | < 100 |  |  |
| C=CC(=O)Nc1ccccc1Nc1ncc2c(n1)N(CC1CC1)C(=O)N(c1cc(OC)cc(OC)c1)C2 [Compound I-98] | < 100 | < 100 |  |  |
| C=CC(=O)NC1COCC1Nc1ncc2c(n1)N(Cc1cscn1)C(=O)N(c1c(Cl)c(OC)cc(OC)c1Cl)C2 (centres unmarked) [Compound I-210] |  | < 100 |  |  |
| C=CC(=O)NC1CCCCC1Nc1ncc2c(n1)N(Cc1ccnc(N)c1)C(=O)N(c1c(Cl)c(OC)cc(OC)c1Cl)C2 (centres unmarked) [Compound I-133] | < 100 | < 100 |  |  |
| C=CC(=O)Nc1ccccc1Nc1ncc2c(n1)N(Cc1ccc(F)cc1)C(=O)N(c1c(Cl)c(OC)cc(OC)c1Cl)C2 [Compound I-25] |  | 101 to 500 | 101 to 500 |  |
| C=CC(=O)N[C@H]1COCC[C@H]1Nc1ncc2c(n1)N(C)C(=O)N(c1c(Cl)c(OC)cc(OC)c1Cl)C2 [Compound I-140] | 101 to 500 | 101 to 500 |  |  |
| C=CC(=O)N[C@H]1CCCC[C@H]1Nc1ncc2cc(-c3c(Cl)c(OC)cc(OC)c3Cl)c(=O)n(C)c2n1 [Compound I-223] |  | < 100 |  | < 100 |
| C=CC(=O)NC1COCC1Nc1ncc2c(n1)N(Cc1cc[nH]n1)C(=O)N(c1c(Cl)c(OC)cc(OC)c1Cl)C2 (centres unmarked) [Compound I-216] | < 100 | 101 to 500 |  |  |
| C=CC(=O)Nc1ccc(C(F)(F)F)cc1Nc1ncc2c(n1)N(C)C(=O)N(c1cc(OC)cc(OC)c1)C2 [Compound I-50] | < 100 | 101 to 500 |  |  |
| C=CC(=O)NC1COCC1Nc1ncc2c(n1)N(C)C(=O)N(c1c(Cl)c(OC)c(OC)c(OC)c1Cl)C2 (centres unmarked) [Compound I-208] | 501 to 999 | > 1000 |  |  |
| C=CC(=O)NC1CS(=O)(=O)CC1Nc1ncc2c(n1)N(C)C(=O)N(c1c(Cl)c(OC)cc(OC)c1Cl)C2 (centres unmarked) [Compound I-200] | < 100 | 101 to 500 |  |  |
| C=CC(=O)Nc1ccccc1Nc1ncc2c(n1)N(CC(F)F)C(=O)N(c1c(F)c(OC)cc(OC)c1F)C2 [Compound I-116] | < 100 | < 100 |  |  |

| Structure (SMILES) | IC50 (FGFR4-WT; [1]) [nM] | EC50 (pFGFR4 in Huh7 cells) [nM] | IC50 (FGFR4-WT; [2]) [nM] | IC50 (FGFR4-WT) [nM] |
| --- | --- | --- | --- | --- |
| C=CC(=O)Nc1cc(OC)ccc1Nc1ncc2cc(-c3c(Cl)c(OC)cc(OC)c3Cl)c(=O)n(C)c2n1 [Compound I-242] |  | < 100 |  |  |
| C=CC(=O)Nc1cc(C(F)(F)F)ccc1Nc1ncc2c(n1)N(C)C(=O)N(c1cc(OC)cc(OC)c1)C2 [Compound I-42] | < 100 | < 100 |  |  |
| C=CC(=O)Nc1ccccc1Nc1ncc2c(n1)N(CCF)C(=O)N(c1cc(OC)cc(OC)c1Cl)C2 [Compound I-110] | < 100 | < 100 |  |  |
| C=CC(=O)Nc1ccccc1Nc1ncc2c(n1)N(CC(O)CO)C(=O)N(c1cc(OC)cc(OC)c1)C2 (centres unmarked) [Compound I-33] |  | > 1000 |  |  |
| C=CC(=O)NC1CCCCC1Nc1ncc2c(n1)N(Cc1ccn(C)c(=O)c1)C(=O)N(c1c(Cl)c(OC)cc(OC)c1Cl)C2 (centres unmarked) [Compound I-132] | < 100 | 101 to 500 |  |  |
| C=CC(=O)Nc1nn(C)cc1Nc1ncc2c(n1)N(C)C(=O)N(c1c(Cl)c(OC)cc(OC)c1Cl)C2 [Compound I-117] | < 100 | < 100 |  |  |
| C=CC(=O)Nc1ccccc1Nc1ncc2c(n1)N(Cc1cccc(N)c1)C(=O)N(c1c(Cl)c(OC)cc(OC)c1Cl)C2 [Compound I-26] |  | < 100 | < 100 |  |
| C=CC(=O)Nc1cc(N2CCN(C(=O)CCCC(=O)NCCCOCCOCCOCCCNC(=O)CCCC[C@@H]3SC[C@@H]4NC(=O)N[C@@H]43)CC2)ccc1Nc1ncc2c(n1)N(C)C(=O)N(c1c(Cl)c(OC)cc(OC)c1Cl)C2 [Compound I-127] |  | 101 to 500 |  | < 100 |
| C=CC(=O)NC1CN(C(C)=O)CC1Nc1ncc2c(n1)N(C)C(=O)N(c1c(Cl)c(OC)cc(OC)c1Cl)C2 (racemic) [Compound I-139] |  | 101 to 500 |  |  |
| C=CC(=O)Nc1cc(N2CCN(CCOC)CC2)ccc1Nc1ncc2c(n1)N(Cc1cccc(NC(=O)CC)c1)C(=O)N(c1cc(OC)cc(OC)c1)C2 [Compound I-9] |  | 101 to 500 |  |  |
| C=CC(=O)NC1CCCCC1Nc1ncc2c(n1)N(CCF)C(=O)N(c1c(Cl)c(OC)cc(OC)c1Cl)C2 (racemic) [Compound I-106] |  | 101 to 500 |  |  |
| C=CC(=O)N[C@H]1CCCC[C@H]1Nc1ncc2c(n1)N(Cc1cscn1)C(=O)N(c1c(Cl)c(OC)cc(OC)c1Cl)C2 [Compound I-114] |  | 101 to 500 |  |  |
| C=CC(=O)NC1COCC1Nc1ncc2c(n1)N(CC1CC1)C(=O)N(c1c(Cl)c(OC)cc(OC)c1Cl)C2 (centres unmarked) [Compound I-212] |  | < 100 |  |  |
| C=CC(=O)Nc1ccccc1Nc1ncc2cc(-c3cc(OC)cc(OC)c3)c(N)nc2n1 [Compound I-155] |  | > 1000 |  |  |
| C=CC(=O)Nc1ccccc1Nc1ncc2c(n1)N(Cc1cccc(C#N)c1)C(=O)N(c1cc(OC)cc(OC)c1)C2 [Compound I-90] | < 100 |  |  |  |
| C=CC(=O)Nc1ccccc1Nc1ncc2c(n1)N(Cc1nccs1)C(=O)N(c1c(Cl)c(OC)cc(OC)c1Cl)C2 [Compound I-91] | < 100 |  |  |  |
| C=CC(=O)Nc1cc(-c2cnn(C)c2)ccc1Nc1ncc2c(n1)N(C)C(=O)N(c1c(Cl)c(OC)cc(OC)c1Cl)C2 [Compound I-141] | < 100 |  |  |  |
| C=CC(=O)NC1COCC1Nc1ncc2c(n1)N(Cc1cn[nH]c1)C(=O)N(c1c(Cl)c(OC)cc(OC)c1Cl)C2 (centres unmarked) [Compound I-214] |  | 101 to 500 |  |  |
| C=CC(=O)Nc1ccccc1Nc1ncc2c(n1)N(CC(F)F)C(=O)N(c1c(Cl)c(OC)cc(OC)c1Cl)C2 [Compound I-103] | < 100 |  |  |  |
| C=CC(=O)Nc1ccccc1Nc1ncc2c(n1)N(CC1CC1)C(=O)N(c1c(Cl)c(OC)cc(OC)c1Cl)C2 [Compound I-130] | < 100 |  |  |  |
| C=CC(=O)Nc1ccccc1Nc1ncc2c(n1)N(C)C(=O)N(C1CC1)C2 [Compound I-51] | > 1000 |  |  |  |
| C=CC(=O)NC1CN(C)CC1Nc1ncc2c(n1)N(C)C(=O)N(c1c(Cl)c(OC)cc(OC)c1Cl)C2 (racemic) [Compound I-138] |  | 101 to 500 |  |  |
| C=CC(=O)N(C)c1ccccc1Nc1ncc2c(n1)N(C)C(=O)N(c1c(Cl)c(OC)cc(OC)c1Cl)C2 [Compound I-29] | 101 to 500 |  |  |  |
